Entries after “also recorded” stand apart in the source; their conditions may differ.
System: Sprague Dawley rats
Experiment: Pericardial application of dobutamine to the left ventricular free wall in anesthetized rats, hemodynamic recording
Type: in vivo, rat
Description: Sprague Dawley rats ([…]) were anesthetized with an intraperitoneal injection of ketamine and xylazine. The rat was laid on a heating pad and maintained euthermic with warming lights. A 24 gauge intravenous catheter was placed in the tail vein and Ringer's lactate solution (LR) was infused at 10 cc/hr. The trachea was exposed through a vertical incision and cannulated with a 16 gauge blunt cannula that served as an endotracheal tube. The tube was connected to a ventilator for control of ventilation and respiration. The respiratory rate was set to 60 breaths per minute, inspiratory to expiratory time was set to 1:2 and inspiratory flow was 2 liters per minute. A midline sternotomy was performed, the heart exposed and the pericardium resected. The right carotid artery was dissected clean of fascia and care was taken to preserve the adjacent vagus nerve. A polyethelene (PE-50) cannula was inserted via an arteriotomy into the carotid artery and advanced through the ascending aorta into the left ventricle. This ventricular cannula was connected to a high fidelity pressure transducer and digital data acquisition system to record hemodynamic measures. Heart rate (HR), left ventricular systolic blood pressure (SBP), and the maximum rate of change of blood pressure in the left ventricle during isovolemic contraction (dp/dt max) was all recorded. The dp/dt max is the gold standard index of myocardial contractility.
Following cannulation the rat was stabilized for 30 minutes. Five-second recordings of HR, SBP and dp/dt max were captured every 3 to 5 minutes. SBP and dp/dt max were averaged over all the beats captured in the 5-second interval. Dobutamine (313 mcg/ml), a potent beta agonist inotropic agent, was delivered to the left ventricular free wall through the sternotomy using an infusion pump connected to a 24 gauge IV cannula that was suspended directly over the heart (4 mcg/min, 0.8 ml/hr). […] After 30 minutes the pericardial application of dobutamine was terminated and hemodynamic measurements were recorded for an additional 30 minutes.

CC(CCc1ccc(O)cc1)NCCc1ccc(O)c(O)c1 (stereo not drawn) [dobutamine]
Left ventricular systolic blood pressure / systemic blood pressure (dobutamine 4 mcg/min for 30 minutes, local pericardial delivery, FIG. 2): increased | Heart rate (dobutamine 4 mcg/min for 30 minutes, topical application to the heart, FIG. 3): increased | Contractility (max dp/dt of left ventricular pressure during isovolemic contraction) (dobutamine 313 mcg/ml, 4 mcg/min (0.8 ml/hr) for 30 minutes, applied directly to left ventricular free wall, FIG. 1): increased significantly; also recorded: significantly increased
